Measured values taken from patent publication US20220378773A1, “METHODS FOR TREATING LEUKEMIA AND USE OF A LEUKEMIC STEM CELL SIGNATURE TO PREDICT CLINICAL SENSITIVITY TO THERAPIES” (CELGENE CORPORATION, priority 2019, published 2022).

Tests used:
GSPT1 [1] = target: T1, GSPT1 (Homo sapiens, UniProt P15170+Q96SW2); test: In vitro GSPT1 degradation in primary AML cells (flow cytometry, MFI); format: cell-based
T1 construct: endogenous in cells; host or cells: primary AML patient cells (peripheral blood mononuclear cells) in short-term suspension culture
T1 sequence (P15170 whole entry): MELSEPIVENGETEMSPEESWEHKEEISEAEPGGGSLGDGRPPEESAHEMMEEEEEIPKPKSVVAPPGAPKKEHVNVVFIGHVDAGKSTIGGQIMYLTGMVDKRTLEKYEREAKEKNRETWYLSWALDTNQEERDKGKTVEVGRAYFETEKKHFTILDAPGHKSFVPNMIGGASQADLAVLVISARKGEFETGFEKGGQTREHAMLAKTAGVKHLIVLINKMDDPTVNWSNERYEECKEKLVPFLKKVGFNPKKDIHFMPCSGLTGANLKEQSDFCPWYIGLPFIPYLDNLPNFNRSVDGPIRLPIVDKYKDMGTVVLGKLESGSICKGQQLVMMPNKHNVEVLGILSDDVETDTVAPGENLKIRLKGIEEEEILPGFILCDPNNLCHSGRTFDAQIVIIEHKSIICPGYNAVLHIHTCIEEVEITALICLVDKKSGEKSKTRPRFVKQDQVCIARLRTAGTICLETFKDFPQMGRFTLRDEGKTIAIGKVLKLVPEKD
T1 sequence (Q96SW2 whole entry): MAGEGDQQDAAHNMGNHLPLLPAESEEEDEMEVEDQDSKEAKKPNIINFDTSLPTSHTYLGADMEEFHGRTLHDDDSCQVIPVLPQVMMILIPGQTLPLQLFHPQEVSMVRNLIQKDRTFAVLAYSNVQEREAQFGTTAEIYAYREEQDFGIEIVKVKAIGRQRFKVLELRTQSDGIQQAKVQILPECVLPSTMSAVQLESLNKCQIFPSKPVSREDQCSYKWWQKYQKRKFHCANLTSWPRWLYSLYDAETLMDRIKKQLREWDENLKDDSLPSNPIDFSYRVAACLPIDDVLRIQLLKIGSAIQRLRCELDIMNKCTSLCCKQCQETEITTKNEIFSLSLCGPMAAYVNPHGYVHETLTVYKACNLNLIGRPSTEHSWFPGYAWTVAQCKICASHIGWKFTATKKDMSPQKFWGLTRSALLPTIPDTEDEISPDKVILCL
T1 sequence (Q16531 whole entry partner): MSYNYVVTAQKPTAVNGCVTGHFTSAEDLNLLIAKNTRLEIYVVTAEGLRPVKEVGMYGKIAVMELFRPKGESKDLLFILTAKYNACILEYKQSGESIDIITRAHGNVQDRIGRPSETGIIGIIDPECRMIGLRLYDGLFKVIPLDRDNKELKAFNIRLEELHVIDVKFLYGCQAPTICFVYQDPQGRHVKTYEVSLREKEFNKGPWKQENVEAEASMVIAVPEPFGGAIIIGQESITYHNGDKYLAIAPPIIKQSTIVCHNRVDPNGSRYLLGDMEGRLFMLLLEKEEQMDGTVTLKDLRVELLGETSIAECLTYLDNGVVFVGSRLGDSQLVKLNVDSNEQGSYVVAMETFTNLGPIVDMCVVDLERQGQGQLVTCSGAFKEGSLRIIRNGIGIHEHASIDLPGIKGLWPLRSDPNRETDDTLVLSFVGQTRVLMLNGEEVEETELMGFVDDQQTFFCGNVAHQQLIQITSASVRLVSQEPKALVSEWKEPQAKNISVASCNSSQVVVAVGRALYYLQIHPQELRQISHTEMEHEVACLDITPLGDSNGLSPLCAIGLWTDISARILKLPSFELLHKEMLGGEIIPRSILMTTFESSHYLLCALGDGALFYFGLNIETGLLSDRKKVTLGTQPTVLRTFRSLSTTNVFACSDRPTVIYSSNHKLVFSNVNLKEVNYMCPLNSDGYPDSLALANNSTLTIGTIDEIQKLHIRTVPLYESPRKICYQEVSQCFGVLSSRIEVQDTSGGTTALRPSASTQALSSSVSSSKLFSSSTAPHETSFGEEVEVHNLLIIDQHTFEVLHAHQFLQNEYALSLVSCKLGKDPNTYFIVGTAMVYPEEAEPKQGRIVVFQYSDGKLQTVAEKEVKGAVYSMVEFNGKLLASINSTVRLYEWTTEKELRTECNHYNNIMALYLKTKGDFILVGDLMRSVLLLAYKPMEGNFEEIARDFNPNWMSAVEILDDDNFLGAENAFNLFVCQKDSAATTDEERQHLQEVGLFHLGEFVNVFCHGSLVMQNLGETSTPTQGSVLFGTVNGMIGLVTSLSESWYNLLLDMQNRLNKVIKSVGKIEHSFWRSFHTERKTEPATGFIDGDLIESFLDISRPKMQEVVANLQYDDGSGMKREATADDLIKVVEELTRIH
Experimental: 6.2.3.1. In Vitro Degradation of G1 to S Phase Transition Protein 1 (GSPT1) by Compound D and Apoptosis Assay
Preparation of Test Article Stock Solutions and Dilutions: Compound D was prepared in anhydrous DMSO to make a 1 M stock solution then further diluted to final concentrations of 3, 30, and 100 nM.
Cell Culture: Materials used for in vitro assays of AML cells included X-VIVO 10 medium supplemented with 15% BIT, and growth factors including 100 ng/mL of stem cell factor, 20 ng/mL of IL-6, 20 ng/mL of G-CSF, 20 ng/mL of IL-3, 100 ng/mL of Flt 3 ligand (each provided by Amgen, USA), 20 ng/mL of GM-CSF (R&D Systems, USA), and 50 ng/mL of thrombopoietin (Kirin Brewery, Japan).
Assay Procedure: After 4 and 24 hours of in vitro culture with DMSO or Compound D, cells were harvested for GSPT1 expression and apoptosis. Levels of GSPT1 were analyzed by flow cytometry using median fluorescence intensity (MFI) and normalized against DMSO controls. Apoptosis was also analyzed by flow cytometry and measured as percentage of cells which were positive for cleaved caspase 3/7.
Viably frozen primary leukemia cells were thawed and plated in suspension culture in the Iscove's Modified Dulbecco's Medium plus 15% BIT Serum Substitute (Stem Cell Technology, Canada), supplemented with multiple human growth factors. Compound D was added to the culture at indicated concentrations.
For GSPT1 expression, intracellular flow cytometry (FACS) was performed at 24 hours in culture by staining cells with GSPT1 conjugated with Alexa Fluor 647. For apoptosis, cells were harvested at 24 hours in culture and stained with Annexin V-PE and 7-aminoactinomycin D (7AAD) (BD Biosciences, USA).

[2] = tested on: normal cord blood-derived human graft; design: species or system NOD/SCID mice; details: mouse, in vivo
Experimental: Normal cord blood experiment was carried out similar to what has been described as above but using CD34+ cells isolated from normal cord blood. Two or three normal donors were pulled together to generate enough cells for each of the CB engraftments, termed CB1 and CB2.
Compound D toxicity on normal hematopoietic cells was investigated using CB samples. Mice were transplanted with two different CB samples (CB1 and CB2) and dosed with 2.5 mg/kg Compound D or vehicle control BID intraperitoneally. Flow cytometric analyses from a representative mouse from the vehicle- and Compound D-treated groups are shown in FIG. 8A and FIG. 8B, respectively.

GSPT1 [3] = target: T1, GSPT1; test: In vivo GSPT1 expression in xenograft AML model (intracellular FACS); design: species or system mice
Experimental: After 4 weeks of transplantation with AML cells, mice were treated with Compound D at 2.5 mg/kg twice a day for 3 doses totally. Four hours after the last treatment, cells were harvested from both injected RF and non-injected BM of each mouse and were stained with CD45-FITC (BD Biosciences, USA), fixed and permeabilized. Cells were then stained with GSPT1-Alexa Fluor 647 for intracellular FACS to detect the expression of GSPT1 in engrafted leukemic cells.

AML graft = test: In vivo apoptosis and cell death (propidium iodide staining); design: species or system NOD/SCID mice; details: after 4 weeks treatment
Text: After treatment finished, cells were harvested from both injected right femur (RF) and non-injected bone marrow (BM, including left femur, 2 tibias), and stained with human antibodies to assess the engraftment levels of AML. Antibodies used for staining included: Mouse anti-human CD45-APC, CD15-FITC, CD34-APC7, CD38-PC7 (BD Biosciences, USA), CD14-PE, CD33-PC5 (Beckman Coulter, USA), CD19-V450, CD19-AF700, CD11b-APC7, CD34-BV421 (BD Biosciences, USA), and propidium iodide (PI; Invitrogen, USA).
Following 4 weeks Compound D treatment, harvested cells were stained with propidium iodide (PI) for detecting apoptotic and dead leukemia cells. […] To determine whether GSPT1 can also be degraded by Compound D administration in vivo, leukemia cells were harvested after 3 doses of Compound D treatment for intracellular flow cytometry to assess the levels of GSPT1 in both injected RF and non-injected BM. […] It seems that Compound D degraded GSPT1 more profoundly in the injected RF than in non-injected BM. More samples had lesser GSPT1 reduction in the non-injected BM than in RF. Perhaps this reflects differences in the niche or blood supply between these sites; intrafemoral (IF) injection involves reaming out the femoral cavity prior to cell injection. […]

[4] = format: physicochemical
Text: Formulation: 5% NMP/45% polyethylene glycol (PEG) 400/50% Saline; NMP—Catalogue no. 69118 (new no. M79603-1L), Fluka; PEG400—Catalogue no. 81172-1L, Fluka; Saline—0.9% sodium chloride.
Preparation: Weigh the desired amount of compound in glass vial. Add NMP and vortex. Make sure that entire compound is wet. Add PEG400 and vortex until clear solution without particulates. Add saline slowly and mix thoroughly for about a minute with hand held homogenizer with disposable tip.

## O=C1CCC(N2Cc3cc(CNC(=O)C(F)(F)c4ccc(Cl)cc4)ccc3C2=O)C(=O)N1 (centres unmarked) [Compound D, 2-(4-chlorophenyl)-N-((2-(2,6-dioxopiperidin-3-yl)-1-oxoisoindolin-5-yl)methyl)-2,2-difluoroacetamide]
GSPT1 [1]; 100 nM, 24 hours
  GSPT1 degradation, high vs low LSC17 score samples: samples with high LSC17 scores had significantly higher GSPT1 degradation
GSPT1 [1]; 3, 30, 100 nM
  effect on reduction of GSPT1 levels, concentration dependence: concentration dependent
GSPT1 [1]; Section 6.3 samples, 24 hours exposure
  GSPT1 expression in AML cells: decreased GSPT1 expression
GSPT1 [1]; ten primary AML patient samples, 4 and 24 hours, vs control
  GSPT1 levels in AML cells: reduced GSPT1 levels as early as 4 hours post treatment
[2]; NOD/SCID, 4 weeks
  human graft remaining after treatment: 5-10%
  percentage of CD34+ cells: did not decrease the percentage of CD34+ cells
[2]
  CD34+CD19+ primitive lymphoid cells: significantly decreased
  CD34+CD33+ primitive myeloid cells: not targeted
  absolute number of CD34+ cells: significantly reduced
  number of CD19+ lymphocytes: significantly decreased
  percentages of CD34+CD38− primary cells: not specifically targeted
  proportion of CD33+ myeloid cells: increased
GSPT1 [3]; 2.5 mg/kg twice a day, 3 doses, 17 samples
  levels of GSPT1 in engrafted leukemia cells: decreased in RF or BM, or in both RF and BM in the majority of 17 samples tested
GSPT1 [3]; Pt120287 and 110555
  GSPT1 reduction: clear GSPT1 reduction in both RF and BM
GSPT1 [3]; Pt130607 and 150250
  GSPT1 reduction: did not show dramatic GSPT1 reduction
AML graft
  number of PI+ events in mouse bone marrow: significantly increased
[4]
  stability in formulation: not stable in the formulation over time
